The target in assay [1] is PL^proCoV2 (recombinant SARS-CoV-2 PL^pro) (Severe acute respiratory syndrome coronavirus 2, UniProt P0DTD1). In kind it is biochemical. The conditions noted are these: for IC50: read-out: IC50 toward PL^proCoV2.
In assay [2] the target is PL^proSARS (recombinant SARS-CoV-1 PL^pro) (Severe acute respiratory syndrome coronavirus, UniProt P0C6X7). Put plainly: biochemical. In kind it is biochemical.
The target of the next assay is PL^proCoV2 (Severe acute respiratory syndrome coronavirus 2, UniProt P0DTD1). In kind it is biochemical, SARS-CoV-2.
The target in a further assay is PL^proSARS (Severe acute respiratory syndrome coronavirus, UniProt P0C6X7). Format: biochemical, SARS-CoV-1.
The next assay concerns CoV2. The conditions noted are these: read-out: EC50 antiviral activity in cell-based assay; cited from earlier work.

One may read the IC50 as the concentration at which inhibition is half-maximal. In general, EC50 refers to the concentration giving half of the maximal effect.

In the case of `COc1ccccc1NC(=O)c1ccccc1[Se][Se]c1ccccc1C(=O)Nc1ccccc1OC` [2e, Bis[2-(2-methoxyphenylcarbamoyl)phenyl] diselenide], the IC50 in assay [1] stood at 263 ± 121 nM.

Turning to `O=C(Nc1ccccc1O)c1ccccc1[Se][Se]c1ccccc1C(=O)Nc1ccccc1O` [2d, Bis[2-(2-hydroxyphenylcarbamoyl)phenyl] diselenide], the IC50 in assay [1] worked out at 339 ± 109 nM.

Consider `COc1ccccc1-n1[se]c2ccccc2c1=O` [1e, 2-(2-Methoxyphenyl)-1,2-benzisoselenazol-3(2H)-one], for which, in assay [1], the “Inhibition of PL^proCoV2 at 2 μM” value is “fully” and the IC50 was determined as 256 ± 35 nM.

Regarding `O=c1c2ccccc2[se]n1-c1ccccc1` [ebselen, 2-Phenyl-1,2-benzisoselenazol-3(2H)-one], in assay [1], the “Mechanism of inhibition of PL^proCoV2” value is “irreversible”. Further, in assay [2], the “Mechanism of inhibition of PL^proSARS” value was “irreversible”. The IC50 in assay [2] (IC50 PL^proSARS 60 min incubation) was 8450 ± 960 nM; in assay [2] (IC50 PL^proSARS no incubation) it was > 200000 nM. Also, the “Reactivation of PL^proCoV2 after dialysis” value at PL^proCoV2 is “reactivation was not observed”. Besides, on PL^proSARS, the “Reactivation of PL^proSARS after dialysis” value is “reactivation was not observed”. Besides, the concentration giving a half-maximal response (EC50) in the assay with CoV2 is 4670 nM.

Consider `O=c1c2ccccc2[se]n1-c1ccccc1O` [1d, 2-(2-Hydroxyphenyl)-1,2-benzisoselenazol-3(2H)-one], for which, in assay [1], the “Inhibition of PL^proCoV2 at 2 μM” value is “fully” and the IC50 turned out to be 236 nM.

These data come from paper PMC7878891 (Scientific Reports, 2021).
